Data on 27 compounds can be found in patent US20050220819A1, “Novel binding epitopes for helicobacter pylori and use thereof” (priority 2002, published 2005).

“Also recorded” adds a separate entry of the source.

The test system of test [1] is Helicobacter pylori. The test is described as follows: TLC bacterial overlay assay: binding of radiolabeled Helicobacter pylori to glycosphingolipids, neoglycolipids and glycolipid derivatives on thin-layer plates. The note with it: for binding of Helicobacter pylori to purified glycosphingolipids (in words): strain 032, overlay assay on thin-layer plates; for binding activity of neoglycolipids with regard to Helicobacter pylori (in words): oligosaccharides reductively aminated to lipid anchor (4-hexadecylaniline); for binding activity of neoglycolipids with regard to Helicobacter pylori (in words) / binding of glycolipid derivatives with regard to Helicobacter pylori (in words): TLC overlay assay.

Test [2] deals with Helicobacter pylori. To be noted: Mysore et al., 2000; cited from earlier work.
For test [3], the system named is Helicobacter pylori binding to human gastrointestinal cell lines. The note with it: Simon et al., 1999; cited from earlier work.

Regarding “GalNAcβ3Galα3Galβ4GlcNAcβ3Galβ4Glcβ1Cer [No. 25, reference compound]”, the “binding of Helicobacter pylori to purified glycosphingolipids (in words)” value (from here on “binding of Helicobacter pylori”) in the test on Helicobacter pylori [1] is on record as “non-binding”.
“NeuAcα3GalNAcβ3Galβ4GlcNAcβ3Galβ4Glcβ1Cer [No. 24, reference compound]”: the “binding of Helicobacter pylori” value in the test on Helicobacter pylori [1] was “non-binding”.
maltoheptaose [reference compound]: in the test with Helicobacter pylori [1], the “binding activity of neoglycolipids with regard to Helicobacter pylori (in words)” value (“binding activity of neoglycolipids” below) is “weakly binding or inactive”.
Consider `CC(=O)N[C@H]1[C@H](OC[C@H]2O[C@@H](O[C@H]3[C@H](O)[C@@H](O)C(O)O[C@@H]3CO)[C@H](O)[C@@H](O)[C@H]2O)O[C@H](CO)[C@@H](O[C@@H]2O[C@H](CO)[C@H](O)[C@H](O[C@@H]3O[C@H](CO)[C@@H](O)[C@H](O)[C@H]3NC(C)=O)[C@H]2O)[C@@H]1O` (stereo partly shown) [GlcNAcβ3Galβ4GlcNAcβ6Galβ4Glc], for which the “binding activity of neoglycolipids” value in the test on Helicobacter pylori [1] was “weakly binding or inactive; also recorded: binding activity was strongly reduced”.
Consider “GlcAβ3GalNAcβ4GlcAβ3GalNAcβ4GlcAβ3GalNAc”, for which the “binding activity of neoglycolipids” value in the test with Helicobacter pylori [1] is “clear binding activity”.
For `CC(=O)N[C@H]1[C@H](O[C@H]2[C@@H](O)[C@@H](CO)O[C@@H](O[C@H]3[C@H](O)[C@@H](O)C(O)O[C@@H]3CO)[C@@H]2O)O[C@H](CO)[C@@H](O[C@@H]2O[C@H](CO)[C@H](O)[C@@H](O[C@@H]3O[C@H](CO)[C@@H](O)[C@H](O)[C@H]3NC(C)=O)[C@H]2O)[C@@H]1O` (stereo partly shown) [GlcNAcβ3Galβ4GlcNAcβ3Galβ4Glc], the “binding activity of neoglycolipids” value in the test on Helicobacter pylori [1] was “clear binding activity”.
With “GalNAcβ3Galβ4GlcNAcβ3Galβ4Glcβ1Cer [No. 11, reference compound]”, in the test with Helicobacter pylori [1], the “binding of Helicobacter pylori” value is “binding was also found”.
“GlcAβ3Galβ4GlcNAcβ3Galβ4GlcβCer [reference compound]”: the “binding of glycolipid derivatives with regard to Helicobacter pylori (in words)” value (shortened to “binding of glycolipid derivatives”) in the test on Helicobacter pylori [1] is “binding active”.
For the compound Glc(A-NH2)β3GalNAcβ4Glc(A-NH2)β3GalNAc, in the test on Helicobacter pylori [1], the “binding activity of neoglycolipids” value is given as “strong binding activity”.
With `CNC(=O)C1OC(OC2C(O)C(CO)OC(OC3C(CO)OC(OCC4OC(O)C(NC(C)=O)C(O)C4O)C(NC(C)=O)C3O)C2O)C(O)C(O)C1O` (stereo not drawn) [Glc(A-methylamide)β3Galβ4GlcNAcβ6GlcNAc], the “binding activity of neoglycolipids” value in the test on Helicobacter pylori [1] is reported as “strong binding activity”.
On to GlcAβ3Galβ4GlcNAcβ6GlcNAc, for which the “binding activity of neoglycolipids” value in the test on Helicobacter pylori [1] was “clear binding activity”.
For the compound `CC(=O)NC1C(OC2C(O)C(CO)OC(OC3C(CO)OC(O)C(O)C3O)C2O)OC(CO)C(OC2OC(CO)C(O)C(OC3OC(C(=O)O)C(O)C(O)C3O)C2O)C1O` (stereo not shown) [GlcAβ3Galβ4GlcNAcβ3Galβ4Glc], the “binding activity of neoglycolipids” value in the test on Helicobacter pylori [1] was “clear binding activity”.
On to “Glc(A-benzylamide)β3 Galβ4GlcNAcβ3Galβ4GlcβCer”, for which, in the test on Helicobacter pylori [1], the “binding of glycolipid derivatives” value is “binding active” and the “binding strength towards H. pylori when comparing dilution series of glycolipids on TLC (in words)” value (from here on “binding strength towards H. pylori”) is reported as “binding effectively”.
For the compound `CC(=O)NC1C(O)OC(COC2OC(CO)C(OC3OC(CO)C(O)C(OC4OC(CO)C(O)C(O)C4NC(C)=O)C3O)C(O)C2NC(C)=O)C(O)C1O` (stereo not shown) [GlcNAcβ3Galβ4GlcNAcα6GlcNAc], the “binding activity of neoglycolipids” value was “weakly binding or inactive” in the test on Helicobacter pylori [1] and “inactive or very weakly active” in the test on Helicobacter pylori [1] (listed as GlcNAcα3Galβ4GlcNAcα6GlcNAc).
As for `CC(=O)NC1C(O)OC(CO)C(OC2OC(CO)C(O)C(OC3OC(CO)C(O)C(O)C3NC(C)=O)C2O)C1O` (stereo not shown) [GlcNAcβ3Galβ4GlcNAc], in the test on Helicobacter pylori [1], the “binding activity of neoglycolipids” value was “weakly binding or inactive”.
In the case of `CC(=O)N[C@H]1[C@H](OC[C@H]2OC(O)[C@H](NC(C)=O)[C@@H](O)[C@@H]2O)O[C@H](CO)[C@@H](O[C@@H]2O[C@H](CO)[C@H](O)[C@H](O[C@@H]3O[C@H](CO)[C@@H](O)[C@H](O)[C@H]3NC(C)=O)[C@H]2O)[C@@H]1O` (stereo partly shown) [GlcNAcβ3Galβ4GlcNAcβ6GlcNAc], the “binding activity of neoglycolipids” value with Helicobacter pylori [1] was “high affinity binding; also recorded: strong binding activity”.
For `CC(=O)NC1C(O)OC(CO)C(OC2OC(CO)C(O)C(OC3OC(CO)C(OC4OC(CO)C(O)C(O)C4NC(C)=O)C(O)C3NC(C)=O)C2O)C1O` (stereo not shown) [GalNAcβ4GlcNAcβ3Galβ4GlcNAc], the “binding activity of neoglycolipids” value in the test with Helicobacter pylori [1] is “clear binding activity”.
As for `CC(=O)N[C@H]1[C@H](OC[C@H]2OC(O)[C@H](NC(C)=O)[C@@H](O)[C@@H]2O)O[C@H](CO)[C@@H](O[C@@H]2O[C@H](CO)[C@H](O)[C@H](O)[C@H]2O)[C@@H]1O` (stereo partly shown) [Galβ4GlcNAcβ6GlcNAc], the “binding activity of neoglycolipids” value with Helicobacter pylori [1] is “clear binding activity”.
Take “Glc(A-methylamide)β3Galβ4GlcNAcβ3Galβ4GlcβCer”: in the test on Helicobacter pylori [1], the “binding of glycolipid derivatives” value is on record as “binding active” and the “binding strength towards H. pylori” value was “very strong binding”.
As for “Glc(A-octadecylamide)β3Galβ4GlcNAcβ3Galβ4GlcβCer”, in the test with Helicobacter pylori [1], the “binding of glycolipid derivatives” value was “binding active” and the “binding strength towards H. pylori” value was “binding effectively”.
Take sialyl-lactose: the “efficacy in rhesus monkey animal model of the infection” value with Helicobacter pylori [2] is recorded as “effective”. Further, the “inhibition of Helicobacter pylori binding to human gastrointestinal cell lines” value in test [3] was “inhibits”.
Regarding `CC(=O)NC1C(OC2C(O)C(CO)OC(OC3C(CO)OC(O)C(O)C3O)C2O)OC(CO)C(OC2OC(CO)C(O)C(OC3OC(CO)C(O)C(O)C3O)C2O)C1O` (stereo not shown) [Galα3Galβ4GlcNAcβ3Galβ4Glc], in the test on Helicobacter pylori [1], the “binding activity of neoglycolipids” value is recorded as “clear binding activity”.
For “Glc(A-ethylamide)β3 Galβ4GlcNAcβ3Galβ4GlcβCer”, in the test on Helicobacter pylori [1], the “binding of glycolipid derivatives” value is given as “binding active”; the “binding strength towards H. pylori” value was “about equally strong binders and best among the four amide derivatives”.
Turning to Glcβ3Galβ4GlcNAcβ3Galβ4GlcβCer, in the test on Helicobacter pylori [1], the “binding of glycolipid derivatives” value is on record as “binding active” and the “binding strength towards H. pylori” value is “strong binding”.
As to “Galα3Galβ4GlcNAcβ3Galβ4Glcβ1Cer [No. 13, reference compound]”, the “binding of Helicobacter pylori” value in the test on Helicobacter pylori [1] is on record as “binding-active”.
As to `CC(=O)NC1C(OC2C(O)C(CO)OC(OC3C(CO)OC(OC4C(O)C(O)OC(CO)C4O)C(NC(C)=O)C3O)C2O)OC(CO)C(O)C1O` (stereo not shown) [GlcNAcβ3Galβ4GlcNAcβ3Man], the “binding activity of neoglycolipids” value in the test with Helicobacter pylori [1] is reported as “clear binding activity”.
Turning to `CC(=O)N[C@H]1[C@H](OC[C@H]2OC(O)[C@H](O)[C@@H](O)[C@H]2O)O[C@H](CO)[C@@H](O[C@@H]2O[C@H](CO)[C@H](O)[C@H](O[C@@H]3O[C@H](CO)[C@@H](O)[C@H](O)[C@H]3NC(C)=O)[C@H]2O)[C@@H]1O` (stereo partly shown) [GlcNAcβ3Galβ4GlcNAcβ6Gal], the “binding activity of neoglycolipids” value in the test with Helicobacter pylori [1] is given as “some binding activity; also recorded: strong binding activity”.
